According to paper PMC4629797 (Organic & biomolecular chemistry, 2015):

What was measured:
[1] = system: MCF10A cell line (normal breast epithelial cells); test: Cytotoxicity, standard MTT colorimetric assay, MCF10A; format: cell-based; conditions: read-out: IC50 MCF10A
20S proteasome = conditions: potency comparable to belactosins A and C; cited from earlier work
[2] = system: MCF-7 cell line (breast cancer); test: Cytotoxicity, standard MTT colorimetric assay, MCF-7; format: cell-based; conditions: read-out: IC50 MCF-7, MCF-7 breast cancer cells

| Compound | IC50 [1] [µM] | activity as 20S proteasome inhibitors (20S proteasome) | IC50 [2] [µM] |
| --- | --- | --- | --- |
| CC[C@H](C)[C@H](NC(=O)[C@@H](NC(=O)C1OC(=O)C1C(C)C)C(C)C)C(=O)O (single isomer, unassigned; (-)) [(−)-1, cystargolide A] | > 100 | exhibited activity as 20S proteasome inhibitors | 58 ± 9.5 |
| CC(C)C1C(=O)OC1C(=O)N[C@H](C(=O)N[C@H](C(=O)O)C(C)C)C(C)C (single isomer, unassigned; (-)) [(−)-2, cystargolide B] | > 100 | exhibited activity as 20S proteasome inhibitors | 84.7 ± 18.6 |
